Reference: patent publication US7223759B2, “Antibacterial 3,5-diaminopiperidine-substituted aromatic and heteroaromatic compounds” (Anadys Pharmaceuticals, Inc., priority 2003, dated 2007)
Read-outs that look alike come from different tables or passages of the source.

System: Escherichia coli (ATCC25922) or Staphylococcus aureus (ATCC25923)
Assay: Antibacterial MIC, microdilution method in Mueller-Hinton medium
Assay type: cell-based
Details: Escherichia coli, 18 h, read-out: Potency (MIC)
Outline: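 Read after 18 h incubation at 35° C, MIC is the lowest compound level that blocked growth. Compounds were tested in duplicate over 64–0.5 μg/ml two-fold dilutions using Mueller-Hinton microdilution per NCCLS standard.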

[1] = MIC in E. coli or S. aureus, two-fold serial dilutions 64 to 0.5 μg/ml in duplicate, 18 hours of incubation at 35° C.

Row | SMILES | MIC [1] [µg/mL] | MIC [µg/mL]
1 | Cl.NC1C[C@@H](N)CN(c2nc(Nc3ccc(NC(=O)c4cc(Cl)ccc4O)cc3)nc(N3C[C@H](N)C[C@H](N)C3)n2)C1 (stereo in doubt) [N-[4-(5-chloro-2-hydroxy-benzoylamino)-phenyl]-4,6-Bis-((3R,5S)-3,5-diamino-piperidin-1-yl)-[1,3,5]triazine-2-amine] | < 16 | –
2 | NC[C@@H]1C[C@H](N)CN1c1nc(Nc2ccc(NC(=O)c3ccc(Cl)cc3)c(O)c2)nc(N2C[C@H](N)C[C@H](N)C2)n1 [N-{4-[4-((2S,4S)-4-Amino-2-aminomethyl-pyrrolidin-1-yl)-6-((3R,5S)-3,5-diamino-piperidin-1-yl)-[1,3,5]triazin-2-ylamino]-2-hydroxy-phenyl}-4-chloro-benzamide] | – | < 16
3 | Cl.O=C(CC(=O)c1ccc(Nc2nc(N3CCCCC3)nc(N3CCCCC3)n2)cc1)Nc1ccc(-c2ccccc2)cc1 [N-{4-[2-(biphenyl-44-ylcarbamoyl)-acetyl]-phenyl}-44,6-Bis-((3R,5S)-3,5-diamino-piperidin-1-yl)-[1,3,5]triazine-2-amine] | < 16 | –
4 | N[C@@H]1C[C@H](N)CN(c2nc(Nc3ccc(C(=O)Nc4ccc(F)c(Cl)c4)c(O)c3)nc(N3C[C@H](N)C[C@H](N)C3)n2)C1 [N-[4-(3-chloro-4-fluoro-phenylcarbamoyl)-3-hydroxy-phenyl]-4,6-Bis-((3R,5S)-3,5-diamino-piperidin-1-yl)-[1,3,5]triazine-2-amine] | – | < 16
5 | N[C@@H]1C[C@H](N)CN(c2nc(Nc3cccc(NC(=O)c4cccc([N+](=O)[O-])c4O)c3)nc(N3C[C@H](N)C[C@H](N)C3)n2)C1 [N-[3-(2-hydroxy-3-nitro-benzoylamino)-phenyl]-4,6-Bis-((3R,5S)-3,5-diamino-piperidin-1-yl)-[1,3,5]triazine-2-amine] | – | < 16
6 | N[C@@H]1C[C@H](N)CN(c2nc(Nc3ccc(C(=O)Nc4ccc5c(c4)OC(F)(F)O5)c(O)c3)nc(N3C[C@H](N)C[C@H](N)C3)n2)C1 [N-[4-(2,2-difluoro-benzo[1,3]dioxol-5-ylcarbamoyl)-3-hydroxy-phenyl]-4,6-Bis-((3R,5S)-3,5-diamino-piperidin-1-yl)-[1,3,5]triazine-2-amine] | – | < 16
7 | N[C@@H]1C[C@H](N)CN(c2nc(NCCN3CCNC3=O)nc(Nc3ccc(NC(=O)c4ccc(Cl)cc4)c(O)c3)n2)C1 [4-Chloro-N-{4-[4-((3S,5R)-3,5-diamino-piperidin-1-yl)-6-[2-(2-oxo-imidazolidin-1-yl)-ethylamino]-[1,3,5]triazin-2-ylamino}-2-hydroxy-phenyl)-benzamide] | < 64 | –
8 | Cc1ccc(S(=O)(=O)N(Cc2ccccc2)c2ccc(Nc3nc(NCCCn4ccnc4)nc(N4C[C@H](N)C[C@H](N)C4)n3)cc2O)cc1 [N-Benzyl-N-{4-[4-((3R,5S)-3,5-diamino-piperidin-1-yl)-6-(3-imidazol-1-yl-propylamino)-[1,3,5]triazin-2-ylamino]-2-hydroxy-phenyl}-4-methyl-benzenesulfonamide] | < 64 | –
9 | CCCCCCCCCC(=O)Nc1ccc(Nc2nc(N3C[C@H](N)C[C@H](N)C3)nc(N3C[C@H](N)C[C@H](N)C3)n2)cc1O [N-(4-decanoylamino-3-hydroxy-phenyl)-4,6-Bis-((3R,5S)-3,5-diamino-piperidin-1-yl)-[1,3,5]triazine-2-amine] | – | < 16
10 | Cl.Nc1ccc(S(=O)(=O)Nc2ccc(Nc3nc(N4CCCCC4)nc(N4CCCCC4)n3)cc2O)cc1 [N-[4-(4-amino-benzenesulfonylamino)-3-hydroxy-phenyl]-4,6-Bis-((3R,5S)-33,5-diamino-piperidin-1-yl)-[1,3,5]triazine-2-amine] | < 64 | –
11 | N[C@@H]1C[C@H](N)CN(c2nc(Nc3ccccc3N3CCCCC3)nc(N3C[C@H](N)C[C@H](N)C3)n2)C1 [N-(2-piperidin-1-yl-phenyl)-4,6-Bis-((3R,5S)-3,5-diamino-piperidin-1-yl)-[1,3,5]triazine-2-amine] | – | > 64
12 | Cc1ccc(S(=O)(=O)N(Cc2ccccc2)c2ccc(Nc3nc(N4C[C@H](N)C[C@H](N)C4)nc(N4CC[C@H](O)[C@H](CN)C4)n3)c(O)c2)cc1 [N-{4-[4-((3R,4S)-3-Aminomethyl-4-hydroxy-piperidin-1-yl)-6-((3R,5S)-3,5-diamino-piperidin-1-yl)-[1,3,5]triazin-2-ylamino]-3-hydroxy-phenyl}-N-benzyl-4-methyl-benzenesulfonamide] | – | < 64
13 | Cl.Nc1nc(Nc2ccc(Cl)c(Cl)c2)nc(C2C[C@@H](N)C[C@@H](N)C2)n1 (stereo partly drawn) [6-((3S,5R)-3,5-Diamino-piperidin-1-yl)-N-(3,4-dichlorro-phenyl)-[1,3,5]triazine-2,4-diamine] | > 64 | –
14 | N[C@@H]1C[C@H](N)CN(c2nc(Nc3ccc(C(=O)CC(=O)Nc4ccc(Cl)cc4)cc3)nc(N3C[C@H](N)C[C@H](N)C3)n2)C1 [N-{4-[2-(4-chloro-phenylcarbamoyl)-acetyl]-phenyl}-4,6-Bis-((3R,5S)-3,5-diamino-piperidin-1-yl)-[1,3,5]triazine-2-amine] | – | < 16
15 | CC(C)CCCCCC(=O)Nc1ccc(Nc2nc(N3C[C@H](N)C[C@H](N)C3)nc(N3C[C@H](N)C[C@H](N)C3)n2)cc1O [N-[3-hydroxy-4-(7-methyl-octanoylamino)-phenyl]-4,6-Bis-((3R,5S)-3,5-diamino-piperidin-1-yl)-[1,3,5]triazine-2-amine] | – | < 16
16 | N[C@@H]1C[C@H](N)CN(c2nc(Nc3cccc(CO)c3)nc(N3C[C@H](N)C[C@H](N)C3)n2)C1 [N-(3-hydroxymethyl-phenyl)-4,6-Bis-((3R,5S)-3,5-diamino-piperidin-1-yl)-[1,3,5]triazine-2-amine] | – | > 64
17 | Cc1cc(=O)oc2cc(NC(=O)c3ccc(Nc4nc(N5C[C@H](N)C[C@H](N)C5)nc(N5C[C@H](N)C[C@H](N)C5)n4)cc3O)ccc12 [N-[3-hydroxy-4-(4-methyl-2-oxo-2H-chromen-7-ylcarbamoyl)-phenyl]-4,6-Bis-((3R,5S)-3,5-diamino-piperidin-1-yl)-[1,3,5]triazine-2-amine] | – | < 16
18 | Cl.N[C@@H]1C[C@H](N)CN(c2nc(NNc3cc(Cl)ccc3Cl)nc(N3C[C@H](N)C[C@H](N)C3)n2)C1 [N-(4,6-Bis-((3R,5S)-3,5-diamino-piperidin-1-yl)-[1,3,5]triazin-2-yl)-N′-(2,5-Dichloro-phenyl)-hydrazine] | < 64 | –
19 | N[C@@H]1C[C@H](N)CN(c2nc(NCc3ccc(Cl)cc3Cl)nc(N3C[C@H](N)C[C@H](N)C3)n2)C1 [N-(2,4-dichloro-benzyl)-4,6-Bis-((3R,5S)-3,5-diamino-piperidin-1-yl)-[1,3,5]triazin-2-amine] | – | > 64
20 | Cc1cc(Nc2nc(N3C[C@H](N)C[C@H](N)C3)nc(N3C[C@H](N)C[C@H](N)C3)n2)ccc1NC(=O)c1cccc(O)c1O [N-[4-(2,3-dihydroxy-benzoylamino)-3-methyl-phenyl]-4,6-Bis-((3R,5S)-3,5-diamino-piperidin-1-yl)-[1,3,5]triazine-2-amine] | – | < 16
21 | N[C@@H]1C[C@H](N)CN(c2nc(Nc3ccc(C(=O)Nc4ccc5[nH]cnc5c4)c(O)c3)nc(N3C[C@H](N)C[C@H](N)C3)n2)C1 [N-[4-(1H-benzoimidazol-5-ylcarbamoyl)-3-hydroxy-phenyl]-4,6-Bis-((3R,5S)-3,5-diamino-piperidin-1-yl)-[1,3,5]triazine-2-amine] | – | < 16
22 | CC(=O)c1ccc(Nc2nc(N3C[C@H](N)C[C@H](N)C3)nc(N3C[C@@H](N)C[C@H]3CO)n2)cc1 [1-{4-[4-((2S,4S)-4-Amino-2-hydroxymethyl-pyrrolidin-1-yl)-6-((3R,5S)-3,5-diamino-piperidin-1-yl)-[1,3,5]triazin-2-ylamino]-phenyl}-ethanone] | – | > 64
23 | N[C@@H]1C[C@H](N)CN(c2nc(Nc3ccc(C(=O)Nc4ccc(F)c(F)c4)c(O)c3)nc(N3C[C@H](N)C[C@H](N)C3)n2)C1 [N-[4-(3,4-difluoro-phenylcarbamoyl)-3-hydroxy-phenyl]-4,6-Bis-((3R,5S)-3,5-diamino-piperidin-1-yl)-[1,3,5]triazine-2-amine] | – | < 16
24 | N[C@@H]1C[C@H](N)CN(c2nc(Nc3ccc(C(=O)CC(=O)Nc4ccccc4Cl)cc3)nc(N3C[C@@H](N)C[C@H]3CO)n2)C1 [3-{4-[4-((2S,4S)-4-Amino-2-hydroxymethyl-pyrrolidin-1-yl)-6-((3R,5S)-3,5-diamino-piperidin-1-yl)-[1,3,5]triazin-2-ylamino]-phenyl}-N-(2-chloro-phenyl)-3-oxo-propionamide] | – | < 64
25 | Cl.NS(=O)(=O)c1ccc(NC(=O)c2ccc(Nc3nc(N4CCCCC4)nc(N4CCCCC4)n3)cc2O)cc1 [N-[3-hydroxy-4-{4-sulfamoyl-phenylcarbamoyl)-phenyl]-4,6-Bis-((3R,5S)-3,5-diamino-piperidin-1-yl)-[1,3,5]triazine-22-amine] | > 64 | –
26 | COc1ccc(Nc2nc(N3C[C@H](N)C[C@H](N)C3)nc(N3C[C@H](N)C[C@H](N)C3)n2)cc1 [N-(4-methoxy-phenyl)-4,6-Bis-((3R,5S)-3,5-diamino-piperidin-1-yl)-[1,3,5]triazine-2-amine] | – | > 64
27 | N[C@@H]1C[C@H](N)CN(c2nc(Nc3ccc(NC(=O)c4ccc(O)cc4O)c(O)c3)nc(N3C[C@H](N)C[C@H](N)C3)n2)C1 [N-[4-(2,4-dihydroxy-benzoylamino)-3-hydroxy-phenyl]-4,6-Bis-((3R,5S)-3,5-diamino-piperidin-1-yl)-[1,3,5]triazine-2-amine] | – | < 16
28 | Cc1cc(Br)ccc1Nc1nc(N2CCCCC2)nc(N2CCCCC2)n1.Cl [4-[4,6-Bis-((3R,5S)-3,5-diamino-piperidin-1-yl)-[1,3,5]triazin-2-ylammino]-benzoic acid methyl ester] | > 64 | –
29 | N[C@@H]1C[C@H](N)CN(c2nc(Nc3ccc(C(=O)CC(=O)Nc4ccc(F)c(Cl)c4)cc3)nc(N3C[C@H](N)C[C@H](N)C3)n2)C1 [N-{4-[2-(3-chloro-4-fluoro-phenylcarbamoyl)-acetyl]-phenyl}-4,6-Bis-((3R,5S)-3,5-diamino-piperidin-1-yl)-[1,3,5]triazine-2-amine] | – | < 16
